Where two headings read alike, the source gives them in different places.

The target in assay [1] is Recombinant human soluble BACE-1 catalytic domain (Homo sapiens (Human), UniProt P56817). The experiment in a line: BACE-1 Ki Assay (BACE-1 HTRF FRET Assay). The format is biochemical. The protocol: Assay 1: BACE-1 Ki Assay (BACE-1 HTRF FRET Assay)
The compounds of the invention were assessed for their ability to inhibit BACE-1 using the following assay.
The following reagents were used in this assay. Na^+-Acetate pH 5.0; 1% Brij-35; Glycerol; Dimethyl Sulfoxide (DMSO); Recombinant human soluble BACE-1 catalytic domain (>95% pure); APP Swedish mutant peptide substrate (QSY7-APP^swe-Eu): QSY7-EISEVNLDAEFC-Europium-amide.
A homogeneous time-resolved FRET assay can be used to determine IC50 values for inhibitors of the soluble human BACE-1 catalytic domain. This assay monitors the increase of 620 nm fluorescence that resulted from BACE-1 cleavage of an APPswedish APP^swe mutant peptide FRET substrate (QSY7-EISEVNLDAEFC-Europium-amide). This substrate contains an N-terminal QSY7 moiety that serves as a quencher of the C-terminal Europium fluorophore (620 nm Em). In the absence of enzyme activity, 620 nm fluorescence is low in the assay and increased linearly over 3 hours in the presence of uninhibited BACE-1 enzyme. Inhibition of BACE-1 cleavage of the QSY7-APP^swe-Eu substrate by inhibitors is manifested as a suppression of 620 nm fluorescence.
Varying concentrations of inhibitors at 3× the final desired concentration in a volume of 10 ul are preincubated with purified human BACE-1 catalytic domain (3 nM in 10 μl) for 30 minutes at 30° C. in reaction buffer containing 20 mM Na-Acetate pH 5.0, 10% glycerol, 0.1% Brij-35 and 7.5% DSMO. Reactions are initiated by addition of 10 μl of 600 nM QSY7-APP^swe-Eu substrate (200 nM final) to give a final reaction volume of 30 μl in a 384 well Nunc HTRF plate. The reactions are incubated at 30° C. for 1.5 hours. The 620 nm fluorescence is then read on a Rubystar HTRF plate reader (BMG Labtechnologies) using a […] delay followed by a 400 millisecond acquisition time window. Inhibitor IC50 values are derived from non-linear regression analysis of concentration response curves. Ki values are then calculated from IC50 values using the Cheng-Prusoff equation using a previously determined […] of 8 μM for the QSY7-APP^swe-Eu substrate at BACE-1. The example compounds of the invention were measured in this assay.

Assay [2] has as its target purified human autoBACE-2 (Homo sapiens (Human), UniProt Q9Y5Z0). The experiment in a line: BACE-2 Assay (BACE-HTRF assay). Format: biochemical. The note with it: Table 1; Ki calculated from IC50 with Cheng-Prusoff equation; read-out: BACE2 Ki. The method, then:
Inhibitor IC50s, at purified human autoBACE-2 are determined in a time-resolved endpoint proteolysis assay that measures hydrolysis of the QSY7-EISEVNLDAEFC-Eu-amide FRET peptide substrate (BACE-HTRF assay). BACE-mediated hydrolysis of this peptide results in an increase in relative fluorescence (RFU) at 620 nm after excitation with 320 nm light. Inhibitor compounds, prepared at 3× the desired final concentration in 1× BACE assay buffer (20 mM sodium acetate pH 5.0, 10% glycerol, 0.1% Brij-35) supplemented with 7.5% DMSO are pre-incubated with an equal volume of autoBACE-2 enzyme diluted in 1×BACE assay buffer (final enzyme concentration 1 nM) in black 384-well NUNC plates for 30 minutes at 30° C. The assay is initiated by addition of an equal volume of the QSY7-EISEVNLDAEFC-Eu-amide substrate (200 nM final concentration, Km=8 μM […] for autoBACE-2) prepared in 1×BACE assay buffer supplemented with 7.5% DMSO and incubated for 90 minutes at 30° C. DMSO is present at 5% final concentration in the assay. Following laser excitation of sample wells at 320 nm, the fluorescence signal at 620 nm is collected for 400 ms following a 50 μs delay on a RUBYstar HTRF plate reader (BMG Labtechnologies). Raw RFU data is normalized to maximum (1.0 nM BACE/DMSO) and minimum (no enzyme/DMSO) RFU values. IC50 values are determined by nonlinear regression analysis (sigmoidal dose response, variable slope) of percent inhibition data with minimum and maximum values set to 0 and 100 percent respectively. Similar IC50s are obtained when using raw RFU data. The Ki values are calculated from the IC50 using the Cheng-Prusoff equation.

[3] abbreviates: Table 3, comparator compounds of WO2011044181, read-out: BACE-1 Ki Nm.
[4] abbreviates: Table 1, Ki calculated from IC50 with Cheng-Prusoff equation, read-out: BACE1 Ki.

Sequence of Recombinant human soluble BACE-1 catalytic domain (P56817 75-416): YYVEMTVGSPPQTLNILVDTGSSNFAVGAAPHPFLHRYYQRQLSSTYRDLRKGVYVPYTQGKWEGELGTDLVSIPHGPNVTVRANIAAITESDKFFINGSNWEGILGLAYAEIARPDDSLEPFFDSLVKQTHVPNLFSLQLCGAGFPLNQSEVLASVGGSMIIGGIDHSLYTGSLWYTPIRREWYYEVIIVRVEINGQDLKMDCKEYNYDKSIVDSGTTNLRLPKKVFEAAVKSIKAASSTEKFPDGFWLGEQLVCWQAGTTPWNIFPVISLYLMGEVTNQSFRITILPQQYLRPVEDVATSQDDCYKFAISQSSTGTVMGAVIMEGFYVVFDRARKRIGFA
Sequence of purified human autoBACE-2 (Q9Y5Z0 63-473): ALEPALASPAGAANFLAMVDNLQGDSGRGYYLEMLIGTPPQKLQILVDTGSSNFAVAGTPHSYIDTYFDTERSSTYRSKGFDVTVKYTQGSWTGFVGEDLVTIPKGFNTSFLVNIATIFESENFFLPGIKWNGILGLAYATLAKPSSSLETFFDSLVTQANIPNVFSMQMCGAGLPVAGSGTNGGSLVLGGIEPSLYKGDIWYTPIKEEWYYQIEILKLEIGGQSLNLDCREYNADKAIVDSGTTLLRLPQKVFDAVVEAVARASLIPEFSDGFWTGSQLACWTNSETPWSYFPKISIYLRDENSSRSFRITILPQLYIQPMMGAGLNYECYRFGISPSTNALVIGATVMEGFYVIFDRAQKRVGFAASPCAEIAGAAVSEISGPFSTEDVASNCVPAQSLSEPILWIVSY

`CN1C(=N)N[C@](C)(c2cccc(Nc3ccccc3C#N)n2)CS1(=O)=O` [103b (Table IXa), reference compound]: the Ki (in general, a dissociation constant, usually derived from enzyme kinetics or from competition with a known ligand) in assay [1] (setting [3]) stood at 514 nM.

Regarding `COc1ccccc1Nc1cc([C@]2(C)CS(=O)(=O)N(C)C(=N)N2)ccn1` [167 (Table XXI), reference compound], the Ki in assay [1] (setting [3]) amounted to 344 nM.

For the compound `COc1ccccc1Nc1cccc([C@]2(C)CS(=O)(=O)N(C)C(=N)N2)c1` [103a (Table IXa), reference compound], the inhibition constant (Ki) in assay [1] (setting [3]) came out at 69 nM.

In the case of `CN1C(=N)N[C@](C)(c2cc(Nc3nccc4cc(Br)cnc34)ccc2F)CS1(=O)=O` [Example 2, 3-bromo-N-{4-fluoro-3-[(5R)-3-imino-2,5-dimethyl-1,1-dioxido-1,2,4-thiadiazinan-5-yl]phenyl}-1,7-naphthyridin-8-amine], the Ki is 1.5 nM in assay [1] (setting [4]) and 0.38 nM in assay [2].

`CN1C(=N)N[C@](C)(c2cccc(Nc3cccc4c3OC(F)(F)O4)n2)CS1(=O)=O` [163 (Table XXI), reference compound]: the Ki in assay [1] (setting [3]) was 4700 nM.

Regarding `CN1C(=N)N[C@](C)(c2cc(N[C@@H]3CCc4cc(C#N)cnc43)ccc2F)CS1(=O)=O` [Example 19, (R)-7-((4-fluoro-3-((R)-3-imino-2,5-dimethyl-1,1-dioxido-1,2,4-thiadiazinan-5-yl)phenyl)amino)-6,7-dihydro-5H-cyclopenta[b]pyridine-3-carbonitrile], the Ki in assay [1] (setting [4]) is 81 nM; in assay [2], 42.6 nM.

On to `COc1cnc2c(Nc3cc([C@]4(C)CS(=O)(=O)N(C)C(=N)N4)c(F)cn3)nccc2c1` [Example 5, N-{5-fluoro-4-[(5R)-3-imino-2,5-dimethyl-1,1-dioxido-1,2,4-thiadiazinan-5-yl]pyridin-2-yl}-3-methoxy-1,7-naphthyridin-8-amine], for which the results for the Ki in assay [1] (setting [4]) and in assay [2] were 16.2 nM and 4.5 nM, respectively.

With `CN1C(=N)N[C@](C)(c2cc(N[C@H]3CCc4cc(C#N)cnc43)ccc2F)CS1(=O)=O` [Example 18, (S)-7-((4-fluoro-3-((R)-3-imino-2,5-dimethyl-1,1-dioxido-1,2,4-thiadiazinan-5-yl)phenyl)amino)-6,7-dihydro-5H-cyclopenta[b]pyridine-3-carbonitrile], the figures for the Ki in assay [1] (setting [4]) and in assay [2] were 3.1 nM and 22.3 nM, respectively.

As to `CN1C(=N)N[C@](C)(c2cccc(Nc3ncccc3C#N)n2)CS1(=O)=O` [164 (Table XXI), reference compound], in assay [1] (setting [3]), the inhibition constant (Ki) was determined as 508 nM.

As to `CN1C(=N)N[C@](C)(c2cc(Nc3ncnc4cc(Br)cnc34)ccc2F)CS1(=O)=O` [Example 3, 7-bromo-N-{4-fluoro-3-[(5R)-3-imino-2,5-dimethyl-1,1-dioxido-1,2,4-thiadiazinan-5-yl]phenyl}pyrido[3,2-d]pyrimidin-4-amine], the Ki in assay [1] (setting [4]) is 2.8 nM; in assay [2], 0.81 nM.

`CN1C(=N)N[C@](C)(c2cc(N[C@@H]3CCc4ncc(C(F)(F)F)cc43)ccc2F)CS1(=O)=O` [Example 16, (R)-5-(2-fluoro-5-(((R)-3-(trifluoromethyl)-6,7-dihydro-5H-cyclopenta[b]pyridin-5-yl)amino)phenyl)-3-imino-2,5-dimethyl-1,2,4-thiadiazinane 1,1-dioxide]: the Ki in assay [1] (setting [4]) was 57.3 nM; in assay [2], 242 nM.

As to `CN1C(=N)N[C@](C)(c2cc(Nc3cccc4c3OC(F)(F)O4)ccc2F)CS1(=O)=O` [103 (Scheme 18), reference compound], the Ki in assay [1] (setting [3]) turned out to be 42 nM.

In the case of `COc1ccccc1Nc1cccc([C@]2(C)CS(=O)(=O)N(C)C(=N)N2)n1` [162 (Scheme 40), reference compound], the Ki in assay [1] (setting [3]) amounted to 3760 nM.

For `CN1C(=N)N[C@](C)(c2cc(Nc3nccc4cc(Cl)cnc34)ccc2F)CS1(=O)=O` [Example 1, 3-chloro-N-{4-fluoro-3-[(5R)-3-imino-2,5-dimethyl-1,1-dioxido-1,2,4-thiadiazinan-5-yl]phenyl}-1,7-naphthyridin-8-amine], the Ki in assay [1] (setting [4]) was 1.2 nM; in assay [2], 0.22 nM.

On to `CN1C(=N)N[C@](C)(c2cc(N[C@@H]3CCc4ncc(Cl)cc43)ccc2F)CS1(=O)=O` [Example 15, (R)-5-(5-(((R)-3-chloro-6,7-dihydro-5H-cyc1openta[b]pyridin-5-yl)amino)-2-fluorophenyl)-3-imino-2,5-dimethyl-1,2,4-thiadiazinane 1,1-dioxide], for which the figures for the Ki in assay [1] (setting [4]) and in assay [2] were 41.2 nM and 124 nM, respectively.

For the compound `CN1C(=N)N[C@](C)(c2cc(N[C@H]3CCCc4cc(Br)cnc43)ccc2F)CS1(=O)=O` [Example 20, (R)-5-(5-(((S)-3-bromo-5,6,7,8-tetrahydroquinolin-8-yl)amino)-2-fluorophenyl)-3-imino-2,5-dimethyl-1,2,4-thiadiazinane 1,1-dioxide], the results for the inhibitory constant (Ki) in assay [1] (setting [4]) and in assay [2] were 128 nM and 43.1 nM, respectively.

Consider `COc1cnc2c(Nc3ccc(F)c([C@]4(C)CS(=O)(=O)N(C)C(=N)N4)c3)ncnc2n1` [Example 13, N-{4-fluoro-3-[(5R)-3-imino-2,5-dimethyl-1,1-dioxido-1,2,4-thiadiazinan-5-yl]phenyl}-7-methoxypteridin-4-amine], for which the Ki in assay [1] (setting [4]) is 10.6 nM; in assay [2] it was 15.4 nM.

Turning to `COc1cccnc1Nc1cc([C@]2(C)CS(=O)(=O)N(C)C(=N)N2)ccn1` [166 (Table XXI), reference compound], in assay [1] (setting [3]), the Ki stood at 41 nM.

Take `CN1C(=N)N[C@](C)(c2cc(N[C@H]3CCc4cc(Cl)ccc43)ccc2F)CS1(=O)=O` [Example 17, (R)-5-(5-(((S)-5-chloro-2,3-dihydro-1H-inden-1-yl)amino)-2-fluorophenyl)-3-imino-2,5-dimethyl-1,2,4-thiadiazinane 1,1-dioxide]: the Ki is 10.2 nM in assay [1] (setting [4]) and 16.6 nM in assay [2].

`COc1cccnc1Nc1cccc([C@]2(C)CS(=O)(=O)N(C)C(=N)N2)n1` [165 (as listed on page 224), reference compound]: the Ki in assay [1] (setting [3]) came to 2590 nM.

Source of the values: US10071998B2, “Iminothiadiazine dioxides bearing an amine-linked substituent as BACE inhibitors, compositions, and their use” (Merck Sharp & Dohme Corp., priority 2015, dated 2018).
